Data: patent publication US8685974B2 (Bayer CropScience AG, priority 2009, dated 2014)
Where two headings read alike, the source gives them in different places. Marks after values point to notes of the source that are not given here.

Experiments:
[1] = logP by HPLC on reversed phase columns, method [a] (pH 2.3); type: physicochemical; details: for log p: method [a]: pH 2.3, 0.1% phosphoric acid and acetonitrile as eluent, main isomer
[2] = tested on: Leptosphaeria nodorum; assay: Leptosphaeria nodorum test (wheat) / protective; type: in vivo; details: 500 ppm active compound, protective spray, evaluated 7-9 days after inoculation
Method in brief: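 Young wheat plants sprayed protectively with compound in DMF/alkylaryl polyglycol ether emulsion diluted in water, then kept in greenhouse at 90% rel. humidity, 22° C. Scored 7-9 days after inoculation as % efficacy, 0% equal to untreated control and 100% no infection.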

[3] = tested on: Sphaerotheca fuliginea; assay: In vivo test on Sphaerotheca fuliginea (cucurbits powdery mildew); details: dose of 500 ppm; gherkin plants; grading 12 days after contamination
Procedure: In Vivo Test on Sphaerotheca fuliginea (Cucurbits Powdery Mildew)
(§1) The active ingredients tested are prepared by homogenization in a mixture of acetone/tween/DMSO, then diluted with water to obtain the desired active material.
Gherkin plants (Vert petit de Paris variety) in starter cups, sown on a 50/50 peat soil-pozzolana substrate and grown at 20° C./23° C., are treated at the cotyledon Z10 stage by spraying with the aqueous suspension described above. Plants, used as controls, are treated with an aqueous solution not containing the active material.
After 24 hours, the plants are contaminated by spraying them with an aqueous suspension of Sphaerotheca fuliginea spores (100 000 spores per ml). The spores are collected from a contaminated plants. The contaminated gherkin plants are incubated at about 20° C./25° C. and at 60/70% relative humidity.
Grading (% of efficacy) is carried out 12 days after the contamination, in comparison with the control plants.

[4] = pH 2.7; for logP value of the minor isomer (in parenthesis in column Isomer ratio [d]): main value of the example measured by method [b]
[5] = tested on: Pyrenophora teres; assay: In vivo test on Pyrenophora teres (barley net blotch); details: dose of 500 ppm; barley plants; grading 12 days after contamination
Method in brief: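 Barley plants (Plaisant) grown at 12° C. sprayed at 1-leaf stage with compound in acetone/Tween/DMSO diluted in water; 24 h later inoculated with P. teres spores (12,000 spores/ml). Incubated 24 h at ~20° C., 100% RH, then 12 days at 80% RH; graded 12 days post-inoculation against untreated controls.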

[6] = tested on: Fusarium graminearum; type: cell-based; details: 50 μM; for % Inhibition of DON/AcDON at 50 μM: 7 days at 28° C.
[7] = tested on: Alternaria solani; assay: Alternaria test (tomato) / protective; type: in vivo; details: 500 ppm active compound, protective spray, evaluated 7 days after inoculation
Method in brief: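 Young tomato plants sprayed protectively with compound formulated in DMF with alkylaryl polyglycol ether emulsifier and diluted in water to the application rate. After inoculation, plants held at 96% rel. humidity and 20° C. Efficacy scored 7 days post-inoculation: 0% equals untreated control, 100% no infection.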

[8] = tested on: Fusarium proliferatum; assay: Production of fumonisin FB1 by Fusarium proliferatum (microtiter plate, HPLC-MS/MS and OD620); type: cell-based; details: for % inhibition FB1 production at 50 μM: 5 days at 20° C., HPLC-MS/MS; for % inhibition fungal growth at 50 μM: Fusarium proliferatum, OD620 at start and after 5 days
[9] = tested on: Puccinia recondita; assay: In vivo test on Puccinia recondita (brown rust); details: dose of 500 ppm; wheat plants; grading 10 days after contamination
Procedure: In Vivo Test on Puccinia recondita (Brown Rust)
as §1
Wheat plants (Scipion variety) sown on 50/50 peat soil-pozzolana substrate in starter cups and grown at 12° C., are treated at the 1-leaf stage (10 cm tall) by spraying with the aqueous suspension described above.
Plants, used as controls, are treated with an aqueous solution not containing the active material.
After 24 hours, the plants are contaminated by spraying the leaves with an aqueous suspension of Puccinia recondita spores (100,000 spores per ml). The spores are collected from a 10-day-old contaminated wheat and are suspended in water containing 2.5 ml/l of tween 80 10%. The contaminated wheat plants are incubated for 24 hours at 20° C. and at 100% relative humidity, and then for 10 days at 20° C. and at 70% relative humidity.
Grading is carried out 10 days after the contamination, in comparison with the control plants.

Row | SMILES | log p [1] | % Inhibition of fungal growth at 50 μM [6] [%] | % Inhibition of DON/AcDON at 50 μM [6] [%] | efficacy [7] [%] | other results
1 | CC(C)Cn1cc(-c2ccnc(O)n2)c(-c2ccc(Cl)s2)n1 [Example 398] | 2.62^[a] | – | – | – | –
2 | CC(C)Cn1nc(C2CC2)c(-c2ccncc2)c1-c1ccc(Cl)s1 [Example 413] | 2.61^[a] | – | – | – | efficacy [2]: 70%
3 | CC(C)=CCn1cc(-c2ccncc2)c(-c2ccc(Cl)s2)n1 [Example 7] | – | – | – | – | protection (% of efficacy) [3]: 78%; log p [4]: 2.25^[b]
4 | CC(C)Cn1cc(-c2ccnc(NC(=O)C(C)C)c2)c(-c2ccc(Cl)s2)n1 [Example 397] | 3.83^[a] | 32 | 97 | 100 | protection [5]: 90%
5 | CCC(C)n1cc(-c2cc[n+]([O-])cc2)c(-c2ccc(Cl)s2)n1 (stereo not shown) [Example 92] | – | – | – | – | protection (% of efficacy) [3]: 100%; log p [4]: 2.56^[b]
6 | CC(C)Cn1cc(-c2cc(O)ncn2)c(-c2ccc(Cl)s2)n1 [Example 422] | 2.84^[a] | – | – | – | –
7 | CCC(C)n1nc(-c2ccc(Cl)s2)c(-c2ccncc2)c1C1CC1 (stereo not shown) [Example 416] | 2.75^[a] | 8 | 91 | – | efficacy [2]: 70%
8 | CCC(C)n1cc(-c2ccncc2)c(-c2ccc(C(F)(F)F)s2)n1 (stereo not shown) [Example 400] | 2.58^[a] | 0 | 99 | – | –
9 | Clc1ccc(-c2nn(CC3CCCO3)cc2-c2ccncc2)s1 (stereo not shown) [Example 56] | – | – | – | – | protection (% of efficacy) [3]: 88%; logP value of the minor isomer (in parenthesis in column Isomer ratio [d]) [4]: (1.44); log p [4]: 1.6^[b]
10 | CC(C)CC(C)n1ncc(-c2ccncc2)c1-c1ccc(Cl)s1 (stereo not shown) [Example 14] | – | – | – | – | protection (% of efficacy) [3]: 78%; log p [4]: 2.42^[b]
11 | CCC(C)n1cc(-c2ccnc(NC(C)=O)c2)c(-c2ccc(Cl)s2)n1 (stereo not shown) [Example 110] | – | 99 | 100 | 95 | protection [5]: 100%; % inhibition FB1 production at 50 μM [8]: 99%; % inhibition fungal growth at 50 μM [8]: 86%; log p [4]: 2.94^[b]; efficacy [2]: 95%
12 | CC(=O)Nc1nccc(-c2cn(CC(C)C)nc2-c2ccc(Cl)s2)n1 [Example 410] | 3.04^[a] | 0 | 83 | – | efficacy [2]: 94%
13 | CC(C)n1cc(-c2ccncc2)c(-c2ccc(F)s2)n1 [Example 108] | – | 99 | 100 | 100 | % inhibition FB1 production at 50 μM [8]: 100%; % inhibition fungal growth at 50 μM [8]: 25%; log p [4]: 1.53^[b]
14 | Cc1cn(-c2cc(-c3cn(CC(C)C)nc3-c3ccc(Cl)s3)ccn2)cn1 [Example 399] | 2.56^[a] | 0 | 90 | 78 | –
15 | CC#CCn1cc(-c2ccncc2)c(-c2ccc(Cl)s2)n1 [Example 51] | – | – | – | – | protection [9]: 75%; protection (% of efficacy) [3]: 100%; logP value of the minor isomer (in parenthesis in column Isomer ratio [d]) [4]: (1.60); log p [4]: 1.81^[b]
16 | CC#Cc1[nH]nc(-c2ccc(Cl)s2)c1-c1ccncc1 [Example 419] | 1.44^[a] | – | – | – | –

Row | SMILES | log p [1] | % Inhibition of fungal growth at 50 μM [6] [%] | % Inhibition of DON/AcDON at 50 μM [6] [%] | efficacy [7] [%] | other results
17 | CC(C)Cn1cc(-c2ccnc3ccccc23)c(-c2ccc(Cl)s2)n1 [Example 421] | 3.69^[a] | – | – | 89 | –
18 | CC#Cc1c(-c2ccncc2)c(-c2ccc(Cl)s2)nn1C(C)C [Example 412] | 2.78^[a] | 98 | 93 | 90 | efficacy [2]: 70%
19 | CC#Cc1c(-c2ccncc2)c(-c2ccc(Cl)s2)nn1Cc1ccc(OC)cc1 [Example 420] | 3.02^[a] | – | – | – | % inhibition FB1 production at 50 μM [8]: 90%; % inhibition fungal growth at 50 μM [8]: 21%; logP value of the minor isomer ([1]; minor isomer, in parentheses in the Isomer ratio column, method [a], pH 2.3): (2.53)
20 | FC(F)(F)c1ccc(-c2c(-c3ccncc3)cnn2C2CCCCO2)s1 (stereo not shown) [Example 403] | 1.94^[a] | – | – | – | –
21 | CC(C)n1nc(-c2ccc(Cl)s2)c(-c2ccncc2)c1C1CC1 [Example 418] | 2.44^[a] | – | – | – | –
22 | CC(C)Cn1cc(-c2ccnc(NC(C)C)n2)c(-c2ccc(Cl)s2)n1 [Example 411] | 4.34^[a] | 98 | 99 | – | –
23 | Clc1ccc(-c2nn(CCc3ccccc3)cc2-c2ccncc2)s1 [Example 58] | – | – | – | – | protection (% of efficacy) [3]: 81%; log p [4]: 2.3^[b]
24 | CCC(=O)Nc1cc(-c2cn(CC(C)C)nc2-c2ccc(Cl)s2)ccn1 [Example 396] | 3.33^[a] | 30 | 100 | 100 | protection [5]: 70%
25 | CCC(C)n1nc(C2CC2)c(-c2ccncc2)c1-c1ccc(Cl)s1 (stereo not shown) [Example 415] | 2.73^[a] | – | – | – | –
26 | c1cc(-c2c[nH]nc2-c2cc3ccsc3s2)ccn1 [Example 409] | 1.13^[a] | – | – | – | efficacy [2]: 78%
27 | Clc1ccc(-c2nn(Cc3ccccc3)cc2-c2ccncn2)s1 [Example 5] | – | – | – | – | protection [5]: 70%; % inhibition FB1 production at 50 μM [8]: 81%; % inhibition fungal growth at 50 μM [8]: 0%; logP value of the minor isomer (in parenthesis in column Isomer ratio [d]) [4]: (3.17); log p [4]: 3.41^[b]
28 | CC(C)Cn1nc(-c2ccc(Cl)s2)c(-c2ccncc2)c1C1CC1 [Example 414] | 2.7^[a] | 11 | 84 | – | –
29 | CC(C)n1nc(C2CC2)c(-c2ccncc2)c1-c1ccc(Cl)s1 [Example 417] | 2.44^[a] | – | – | – | efficacy [2]: 80%
30 | CC(C)n1cc(-c2ccncc2)c(-c2ccc(C(F)(F)F)s2)n1 [Example 401] | 2.2^[a] | 0 | 99 | 78 | –
31 | Brc1ccc(-c2n[nH]cc2-c2ccncc2)s1 [Example 408] | 0.94^[a] | 0 | 97 | 70 | efficacy [2]: 78%
32 | CC(C)Cn1cc(-c2cc(N)ncn2)c(-c2ccc(Cl)s2)n1 [Example 423] | 1.97^[a] | 91 | 99 | 94 | protection [5]: 75%; efficacy [2]: 80%
